“Also recorded” adds a separate entry of the source. Counter-ions that a name gives are not always drawn.
What was measured:
[1] = tested on: mouse partial sciatic nerve ligation model (neuropathic pain); experiment: Mouse partial sciatic nerve ligation model (Seltzer model), von Frey test; assay type: in vivo; conditions: Comparative Example 7: oral, 7 days after ligation, 1-3 h after dosing; 0.01-1 mg/kg (Comp Ex 1), 10 mg/kg (Comp Ex 3-6, pregabalin); vs ligation+distilled water; t-test corrected by Dunnett
[2] = tested on: fibromyalgia syndrome model rats; experiment: Rat fibromyalgia syndrome model (acidic saline), allodynia by von Frey filament; assay type: in vivo; conditions: for allodynia (50% response threshold) vs acidic saline+distilled water group: Day 7, pregabalin 10 mg/kg
Description: To prepare a fibromyalgia syndrome model rat (Sluka et al., Journal of Pharmacology and Experimental Therapeutics, vol. 302, p. 1146-1150, 2002; Nagakura et al., Pain, vol. 146, p. 26-33, 2009; Sluka et al., Pain, vol. 146, p. 3-4, 2009), which is generally employed widely in basic research for fibromyalgia syndrome, acidic saline (100 μL) adjusted to pH 4.0 was intramuscularly injected to the gastrocnemius muscle of the right hind paw of Crl: CD(SD) rat (6 to 7 weeks old, male; from CHARLES RIVER LABORATORIES JAPAN, INC.) under continuous inhalation anesthesia with isoflurane, twice (once in each day of Day 1 and Day 6, wherein Day 1 was the date on which the acidic saline was initially administrated). The rats thus prepared were raised in a breeding room controlled at an indoor temperature of 21 to 25° C. and an indoor humidity of 40 to 70% under the conditions of voluntary intake of food and water. In the same manner, rats to which physiological saline in place of acidic saline was intramuscularly injected were raised. The rats thus raised and not afflicted with fibromyalgia syndrome (“physiological saline+distilled water” group in FIG. 13) were also used in the experiment.
Seven days after the initial administration of acidic saline, allodynia in each rat was measured. […] Note that, measurement of allodynia was performed by use of a von Frey filament (from North Coast Medical) in accordance with the method described in a known literature (Chaplan et al., Journal of Neuroscience Methods, vol. 53, p. 55-63, 1994).
The fibromyalgia syndrome model rats thus obtained are divided into groups such that the 50% response threshold (mean value of the right hind paw and the left hind paw) of the individual groups became equal, and a test compound was administered to the fibromyalgia syndrome model rats on Day 7 after the initial administration of acidic saline.
The compound of Example 11 (0.1 to 10 mg/kg) was dissolved in distilled water and then orally administered to fibromyalgia syndrome model rats (“acidic saline+the compound of Example 11” in FIG. 13). Pregabalin serving as a positive control (10 mg/kg; from KEMPROTEC) was dissolved in distilled water and then orally administered (“acidic saline+pregabalin” in FIG. 13). As a control, distilled water was orally administered to fibromyalgia syndrome model rats (“acidic saline+distilled water” in FIG. 13). Furthermore, distilled water was orally administered to rats not afflicted with fibromyalgia syndrome (“physiological saline+distilled water” in FIG. 13). One hour and three hours after the oral administration, allodynia in individual rats was measured to evaluate an analgesic action. At this time, the 50% response threshold value in the measurement of allodynia before oral administration of the test compound on Day 7 after initial administration of acidic saline was defined as the pre-value.
To prepare a fibromyalgia syndrome model rat (Sluka et al., Journal of Pharmacology and Experimental Therapeutics, vol. 302, p. 1146-50, 2002; Nagakura et al., Pain, vol. 146, p. 26-33, 2009; Sluka et al., Pain, vol. 146, p. 3-4, 2009), which is generally employed widely in basic research for fibromyalgia syndrome, acidic saline (100 μL) adjusted to pH 4.0 was intramuscularly injected to the gastrocnemius muscle of the right hind paw of Slc: (SD) rats (6 to 7 weeks old, male; from Japan SLC, Inc.) under continuous inhalation anesthesia with isoflurane, twice (once in each of Day 1 and Day 6, wherein Day 1 was the initial administration date of the acidic saline). The rats thus prepared were raised in a breeding room controlled at an indoor temperature of 21 to 25° C. and an indoor humidity of 40 to 70% under the conditions of voluntary intake of food and water. In the same manner, rats to which physiological saline was intramuscularly injected in place of acidic saline were raised. […]

SMILES	analgesic action in von Frey test (total score) [1]	allodynia (50% response threshold) vs acidic saline+distilled water group ([2]; Example 15: oral, Example 11 0.1 to 10 mg/kg, 1 and 3 h after dosing)	time the analgesic action lasted after oral administration ([2]; oral administration)	allodynia (50% response threshold) vs acidic saline+distilled water group ([2]; Comparative Example 8: oral, Comparative Example 1 0.1 to 1 mg/kg, 1, 2 and 3 h after dosing, hydrochloride)	persistence of analgesic action ([2]; oral administration)
CC(C)n1ccnc1CCC(=O)N1CCC(N(C)C)CC1 [Comparative Example 6, 1-(4-(dimethylamino)piperidin-1-yl)-3-(1-isopropyl-1H-imidazol-2-yl)propan-1-one hydrochloride]	statistically significant analgesic action	–	–	–	–
CN(C)C1CCN(C(=O)C[C@H](O)c2nccn2C)CC1 [Example 11, (S)-1-(4-(dimethylamino)piperidin-1-yl)-3-hydroxy-3-(1-methyl-1H-imidazol-2-yl)propan-1-one]	–	statistically significantly improved; also recorded: statistically significant analgesic action	3 h	–	–
CN(C)C1CCN(C(=O)CCc2nccn2C)CC1 [Comparative Example 1, 1-(4-(dimethylamino)piperidin-1-yl)-3-(1-methyl-1H-imidazol-2-yl)propan-1-one hydrochloride]	statistically significant analgesic action	–	–	statistically significantly improved; also recorded: statistically significant analgesic action	tended to significantly decrease 3 hours after oral administration

Reference: patent US10173999B2, “Cyclic amine derivative and pharmaceutical use thereof” (Toray Industries, Inc., priority 2015, dated 2019)
